Patent US11000708B2 (priority 2015, dated 2021)
Values joined by “and” are separate entries in the source; they are usually repeats but may differ in a detail not shown here. Equal entries are not always repeated. Where two headings read alike, the source gives them in different places.

Experiments:
[1] = system: clinically-separated Mycobacterium tuberculosis strains; assay type: cell-based
[2] = system: 518 clinically-separated Mycobacterium tuberculosis strains; details: cited from earlier work
[3] = 518 clinically-separated strains
[4] = among 321 strains resistant to one or more first-line drugs

NNC(=O)c1ccncc1 [Isoniazid, isoniazid]
growth of bacterial colonies on drug-containing culture medium ([1]; isoniazid 0.2 μg/ml, Table 4, per clinical strain): 4+ (positive (4+) if the bacterial colonies closely grow on the slant face of the culture medium and account for ¾ or more of the area of the slant face) and 3+ (positive (3+) if the bacterial colonies closely grow on the slant face of the culture medium or are partially fused and account for ½ or more of the slant face and ¾ or less of the slant face)
resistance rate of Mycobacterium tuberculosis [2, 3]: 53.67%

CO[C@H]1/C=C/O[C@@]2(C)Oc3c(C)c(O)c4c(O)c(c(/C=N/N5CCN(C)CC5)c(O)c4c3C2=O)NC(=O)/C(C)=C\C=C\[C@H](C)[C@H](O)[C@@H](C)[C@@H](O)[C@@H](C)[C@H](OC(C)=O)[C@@H]1C [Rifampicin, rifampicin]
growth of bacterial colonies on drug-containing culture medium ([1]; rifampicin 50 μg/ml, Table 5, per clinical strain): 4+ (positive (4+) if the bacterial colonies closely grow on the slant face of the culture medium and account for ¾ or more of the area of the slant face) and 3+ (positive (3+) if the bacterial colonies closely grow on the slant face of the culture medium or are partially fused and account for ½ or more of the slant face and ¾ or less of the slant face) and 2+ (positive (2+) if the bacterial colonies dispersedly grow on the slant face of the culture medium and account for ¼ or more of the slant face and ½ or less of the slant face)
growth of bacterial colonies on drug-containing culture medium ([1]; rifampicin 50 μg/ml, Table 6, isoniazid- and rifampicin-resistant clinical strains): 4+ (positive (4+) if the bacterial colonies closely grow on the slant face of the culture medium and account for ¾ or more of the area of the slant face) and 3+ (positive (3+) if the bacterial colonies closely grow on the slant face of the culture medium or are partially fused and account for ½ or more of the slant face and ¾ or less of the slant face) and 2+ (positive (2+) if the bacterial colonies dispersedly grow on the slant face of the culture medium and account for ¼ or more of the slant face and ½ or less of the slant face)

NCC[C@H](O)C(=O)N[C@@H]1C[C@H](N)[C@@H](O[C@H]2O[C@H](CN)[C@@H](O)[C@H](O)[C@H]2O)[C@H](O)[C@H]1O[C@H]1O[C@H](CO)[C@@H](O)[C@H](N)[C@H]1O [amikacin]
resistance rate of Mycobacterium tuberculosis [2, 3]: 15.83%
resistance rate of Mycobacterium tuberculosis [2, 4]: 25.55%

[H]/N=C(/N)N[C@H]1[C@H](O)[C@@H](O)[C@H](O[C@@H]2O[C@@H](C)[C@](O)(C=O)[C@H]2O[C@@H]2O[C@@H](CO)[C@H](O)[C@@H](O)[C@@H]2NC)[C@@H](N/C(N)=N\[H])[C@@H]1O [streptomycin]
resistance rate of Mycobacterium tuberculosis [2, 3]: 45.95%

capreomycin
resistance rate of Mycobacterium tuberculosis [2, 3]: 21.81%
resistance rate of Mycobacterium tuberculosis [2, 4]: 33.02%

carrimycin
number of strains sensitive to 1 μg/ml of carrimycin ([1]; 1 μg/ml): 54 strains
share of total effective bacteria sensitive to 1 μg/ml of carrimycin ([1]; 1 μg/ml): 31.39%
number of strains with activity superior to that of isoniazid and that of rifampicin ([1]; 20 μg/ml carrimycin vs 1 μg/ml isoniazid and 250 μg/ml rifampicin): 23 strains
number of strains with activity superior to that of isoniazid ([1]; 20 μg/ml carrimycin, isoniazid-resistant clinical strains): 37 strains
number of strains with activity superior to that of rifampicin ([1]; 20 μg/ml carrimycin, rifampicin-resistant clinical strains): 39 strains
total effective rate ([1]; 172 of 240 clinically-separated strains): 71.66%
share of effective strains with activity superior to isoniazid ([1]; of 172 effective strains): 21.5%
share of effective strains with activity superior to isoniazid and rifampicin ([1]; of 172 effective strains): 13.4%
share of effective strains with activity superior to rifampicin ([1]; of 172 effective strains): 22.7%
share of effective strains with sensitivity equivalent to H37Rv ([1]; of 172 effective strains): 53.48%
number of strains with sensitivity equivalent to that of quality control strains H37Rv ([1]; of 172 sensitive strains): 92 strains
number of strains with sensitivity obviously higher than that of quality control strains H37Rv ([1]; of 172 sensitive strains): 80 strains
number of strains sensitive to carrimycin ([1]; of 240 clinically-separated strains, 1 μg/ml or 20 μg/ml): 172 strains
